Literature values in patent US11396520B2, “Synthesis of the organoarsenical antibiotic arsinothricin and derivatives thereof” (THE FLORIDA INTERNATIONAL UNIVERSITY BOARD OF TRUSTEES, priority 2020, dated 2022).

Assays:
[1] = system: Gram-positive and Gram-negative bacteria; settings: stated in words, no test described
[2] = system: carbapenem-resistant Enterobacter cloacae (CRE); settings: WHO ESKAPE pathogen CRE; stated in words, no test described
Mycobacterium bovis BCG = settings: M. bovis BCG; stated in words, no test described
glutamine synthetase = settings: stated in words, no test described

Structure (SMILES): NC(CC[AsH](=O)CO)C(=O)O (stereo not shown) [AST, 2-amino-4-(hydroxymethylarsinoyl)-butanoic acid]
- antibiotic activity [1]: effective against both Gram-positive and Gram-negative bacteria
- antibiotic activity [2]: effective against
- antibiotic activity (Mycobacterium bovis BCG): effective against
- inhibition of glutamine synthetase (glutamine synthetase): inhibits glutamine synthetase
